These are literature values, as cited in US20140256766A1, “TRANSMUCOSAL DRUG DELIVERY SYSTEM” (priority 2013, published 2014).

For series [1] the following is noted: pH 6.8.
The conditions of series [2]: smoking a cigarette (WO 03/055486 A1).

For `CN1CCCC1c1cccnc1` (centres unmarked) [nicotine], in series [1], the “nicotine in the free base form” value is reported as “about 10%”. The “time to peak plasma nicotine levels” value in series [2] is given as “about 10 minutes”.
